{"source": "patent US9750254B2", "about": "“Agricultural or horticultural chemical, method of controlling plant diseases, and product for controlling plant diseases” (Kureha Corporation, priority 2013, dated 2017)", "assay_type_in_all_cases": "cell-based", "key": {"Gaeumannomyces graminis": {"test_system": "Gaeumannomyces graminis", "test": "Test Example 2: in vitro antimicrobial activity test, colony diameter on PDA plate with chemicals, 20° C., three days", "experimental": "On the other hand, Glomerella cingulata was punched out from the vicinity of a Glomerella cingulata colony that was cultured in advance on another plate culture medium free of the chemicals using a cork borer having a diameter of 4 mm, and inoculated on the PDA plate culture medium in which the chemicals were mixed. After culturing at 25° C. for seven days, the diameter of the grown colony was measured. […] Additionally, in the above formula, R represents a fungal growth inhibition rate (%), dc represents the diameter of a colony on an untreated plate, and dt represents the diameter of a colony on a chemical-treated plate. […] Meanwhile, Gaeumannomyces graminis was punched out from the periphery of a colony of Gaeumannomyces graminis using a cork borer having a diameter of 4 mm, and inoculated onto the PDA agar plates in which the chemical(s) was (were) mixed."}, "[1]": {"test_system": "Pseudocercosporella herpotrichoides", "test": "Test Example 3: in vitro antimicrobial activity test, colony diameter on PDA plate with chemicals, 20° C., seven days", "description": "(§1) On the other hand, Glomerella cingulata was punched out from the vicinity of a Glomerella cingulata colony that was cultured in advance on another plate culture medium free of the chemicals using a cork borer having a diameter of 4 mm, and inoculated on the PDA plate culture medium in which the chemicals were mixed. After culturing at 25° C. for seven days, the diameter of the grown colony was measured. […] Additionally, in the above formula, R represents a fungal growth inhibition rate (%), dc represents the diameter of a colony on an untreated plate, and dt represents the diameter of a colony on a chemical-treated plate.\n(§2) Inhibition rate when used as a mixture (theoretical value)=α+(100−α)×β)/100 Note that, in the formula above, α and β respectively represent the inhibition rates of the compounds during single use of the compounds.\nPseudocercosporella herpotrichoides was punched out from the vicinity of a Pseudocercosporella herpotrichoides colony using a cork borer having a diameter of 4 mm, and inoculated on the PDA plate culture medium in which the chemicals were mixed. After culturing at 20° C. for seven days, the diameter of the grown colony was measured."}, "Rhynchosporium secalis": {"test_system": "Rhynchosporium secalis", "test": "Test Example 5: in vitro antimicrobial activity test, colony diameter on PDA plate with chemicals, 25° C., 14 days", "experimental": "Additionally, in the above formula, R represents a fungal growth inhibition rate (%), dc represents the diameter of a colony on an untreated plate, and dt represents the diameter of a colony on a chemical-treated plate. […] Rhynchosporium secalis was punched out from the vicinity of a Rhynchosporium secalis colony that was cultured in advance on another plate culture medium free of the chemicals using a cork borer having a diameter of 4 mm, and inoculated on the PDA plate culture medium in which the chemicals were mixed. After culturing at 25° C. for 14 days, the diameter of the grown colony was measured."}, "Glomerella cingulata": {"test_system": "Glomerella cingulata", "test": "Test Example 1: in vitro antimicrobial activity test, colony diameter on PDA plate with chemicals, 25° C., seven days", "description": "as §1"}, "Septoria tritici": {"test_system": "Septoria tritici", "test": "Test Example 4: in vitro antimicrobial activity test, colony diameter on PDA plate with chemicals, 25° C., 14 days", "description": "as §1, §2\nIn this test example, the antimicrobial action of a mixed formulation of compound (1) and trifloxystrobin against Septoria tritici was tested.\nSeptoria tritici was punched out from the vicinity of a Septoria tritici colony that was cultured in advance on another plate culture medium free of the chemicals using a cork borer having a diameter of 4 mm, and inoculated on the PDA plate culture medium in which the chemicals were mixed."}, "Pyrenophora graminea [2]": {"test_system": "Pyrenophora graminea", "test": "Test Example 7: in vitro antimicrobial activity test (dimoxystrobin), same manner as Test Example 6", "settings": "Compound (1) 0 ppm", "description": "as §1, §2\n(§3) Pyrenophora graminea was punched out from the vicinity of a Pyrenophora graminea colony that was cultured in advance on another plate culture medium free of the chemicals using a cork borer having a diameter of 4 mm, and inoculated on the PDA plate culture medium in which the chemicals were mixed. After culturing at 25° C. for 3 days, the diameter of the grown colony was measured."}, "Pyrenophora graminea [3]": {"test_system": "Pyrenophora graminea", "test": "Test Example 6: in vitro antimicrobial activity test (picoxystrobin), colony diameter on PDA plate with chemicals, 25° C., 3 days", "settings": "Compound (1) 0 ppm", "description": "as §1, §2, §3"}, "[4]": {"settings": "Oculimacula yallundae, read-out: Fungal growth inhibition rate (%) Measured value"}, "[5]": {"settings": "Colletotrichum gloeosporioides, read-out: Fungal growth inhibition rate (%) Measured value"}, "[6]": {"settings": "Zymoseptoria tritici, read-out: Fungal growth inhibition rate (%) Measured value"}}, "data": [{"smiles": "CO/C=C(/C(=O)OC)c1ccccc1Oc1cc(Oc2ccccc2C#N)ncn1", "note": "[Azoxystrobin, azoxystrobin]", "values": [{"measurement": "Fungal growth inhibition rate (%) Measured value", "setting": "Gaeumannomyces graminis; Compound (1) 0 ppm, Azoxystrobin 0.010 ppm", "value": 35, "unit": "%"}, {"measurement": "Fungal growth inhibition rate (%) Measured value", "setting": "Gaeumannomyces graminis; Compound (1) 0 ppm, Azoxystrobin 2.5 ppm", "value": 98, "unit": "%"}]}, {"smiles": "COC(=O)C1(C)CCC(Cc2ccc(Cl)cc2)C1(O)Cn1cncn1", "note": "(centres unmarked) [Compound (1)]", "values": [{"measurement": "Fungal growth inhibition rate (%) Measured value", "setting": "[1]; Compound (1) 0.078 ppm, Kresoxim-methyl 0 ppm", "value": 7, "unit": "%"}, {"measurement": "Fungal growth inhibition rate (%) Measured value", "setting": "Rhynchosporium secalis; Compound (1) 1.25 ppm, Fluoxastrobin 0 ppm", "value": 87, "unit": "%"}, {"measurement": "Fungal growth inhibition rate (%) Measured value", "setting": "Glomerella cingulata; Compound (1) 0.313 ppm, Pyraclostrobin 0 ppm", "value": 45, "unit": "%"}, {"measurement": "Fungal growth inhibition rate (%) Measured value", "setting": "Gaeumannomyces graminis; Compound (1) 0.078 ppm, Azoxystrobin 0 ppm", "value": 0, "unit": "%"}, {"measurement": "Fungal growth inhibition rate (%) Measured value", "setting": "Septoria tritici; Compound (1) 0.02 ppm, Trifloxystrobin 0 ppm", "value": 9, "unit": "%"}]}, {"smiles": "CNC(=O)/C(=N/OC)c1ccccc1COc1cc(C)ccc1C", "note": "[Dimoxystrobin, dimoxystrobin]", "values": [{"measurement": "Fungal growth inhibition rate (%) Measured value", "setting": "Pyrenophora graminea [2]; Dimoxystrobin 0.005 ppm", "value": 28, "unit": "%"}, {"measurement": "Fungal growth inhibition rate (%) Measured value", "setting": "Pyrenophora graminea [2]; Dimoxystrobin 0.02 ppm", "value": 55, "unit": "%"}, {"measurement": "Fungal growth inhibition rate (%) Measured value", "setting": "Pyrenophora graminea [2]; Dimoxystrobin 0.08 ppm", "value": 71, "unit": "%"}]}, {"smiles": "CO/N=C(/C1=NOCCO1)c1ccccc1Oc1ncnc(Oc2ccccc2Cl)c1F", "note": "[Fluoxastrobin, fluoxastrobin]", "values": [{"measurement": "inhibition at 0.005 ppm", "setting": "Rhynchosporium secalis; Rhynchosporium secalis, read-out: Fungal growth inhibition rate (%) Measured value", "value": 25, "unit": "%"}]}, {"smiles": "CO/N=C(/C(=O)OC)c1ccccc1COc1ccccc1C", "note": "[Kresoxim-methyl, kresoxim-methyl]", "values": [{"measurement": "inhibition at 0.02 ppm", "setting": "[1]; [4]", "value": 21, "unit": "%"}, {"measurement": "inhibition at 0.08 ppm", "setting": "[1]; [4]", "value": 34, "unit": "%"}, {"measurement": "inhibition at 0.31 ppm", "setting": "[1]; [4]", "value": 60, "unit": "%"}, {"measurement": "inhibition at 1.25 ppm", "setting": "[1]; [4]", "value": 90, "unit": "%"}]}, {"smiles": "CO/C=C(/C(=O)OC)c1ccccc1COc1cccc(C(F)(F)F)n1", "note": "[Picoxystrobin, picoxystrobin]", "values": [{"measurement": "Fungal growth inhibition rate (%) Measured value", "setting": "Pyrenophora graminea [3]; Picoxystrobin 0.005 ppm", "value": 36, "unit": "%"}, {"measurement": "Fungal growth inhibition rate (%) Measured value", "setting": "Pyrenophora graminea [3]; Picoxystrobin 0.02 ppm", "value": 57, "unit": "%"}, {"measurement": "Fungal growth inhibition rate (%) Measured value", "setting": "Pyrenophora graminea [3]; Picoxystrobin 0.08 ppm", "value": 71, "unit": "%"}, {"measurement": "Fungal growth inhibition rate (%) Measured value", "setting": "Pyrenophora graminea [3]; Picoxystrobin 0.31 ppm", "value": 87, "unit": "%"}, {"measurement": "Fungal growth inhibition rate (%) Measured value", "setting": "Pyrenophora graminea [3]; Picoxystrobin 1.25 ppm", "value": 94, "unit": "%"}]}, {"smiles": "COC(=O)N(OC)c1ccccc1COc1ccn(-c2ccc(Cl)cc2)n1", "note": "[Pyraclostrobin, pyraclostrobin]", "values": [{"measurement": "inhibition at 0.1575 ppm", "setting": "Glomerella cingulata; [5]", "value": 73, "unit": "%"}, {"measurement": "inhibition at 0.63 ppm", "setting": "Glomerella cingulata; [5]", "value": 89, "unit": "%"}, {"measurement": "inhibition at 10 ppm", "setting": "Glomerella cingulata; [5]", "value": 100, "unit": "%"}]}, {"smiles": "CON=C(C(=O)OC)c1ccccc1CON=C(C)c1cccc(C(F)(F)F)c1", "note": "[Trifloxystrobin, trifloxystrobin]", "values": [{"measurement": "inhibition at 0.02 ppm", "setting": "Septoria tritici; [6]", "value": 82, "unit": "%"}, {"measurement": "inhibition at 0.08 ppm", "setting": "Septoria tritici; [6]", "value": 84, "unit": "%"}, {"measurement": "inhibition at 0.31 ppm", "setting": "Septoria tritici; [6]", "value": 86, "unit": "%"}]}]}
